Laboratory results reported in US20230263729A1, “POLY(ETHYLENE GLYCOL)-BLOCK-POLY(PROPYLENE SULFIDE) NANOCARRIER PLATFORM FOR ENHANCED EFFICACY OF IMMUNOSUPPRESSIVE AGENTS” (Northwestern University, priority 2019, published 2023).
Values after ≈ are worked out from the molar mass of the structure shown. Read-outs that look alike come from different tables or passages of the source.

Legend:
BMDCs = experiment: BMDC activation and maturation in vitro (surface markers, IL12p70 ELISA); assay type: cell-based, C57BL/6 mice; conditions: aVD 10^−8 M; LPS and IFN-γ stimulation
Description: Assessment of BMDC activation and maturation in vitro—BMDCs were cultured at a density of 1×10^6/ml and were incubated at 37° C. with 5% CO2 for 10 days. Free aVD, aVD-loaded PS (PS-aVD) or aVD-loaded P-D2-PEG5-PS (P-D2-PEG5-PS-aVD) with the aVD concentration of 10^−8 M were added when the media was refreshed on days 3 and 6. On day 7, 10 ng/ml murine recombinant interferon (IFN-γ) and 1 μg/ml LPS were added to stimulate dendritic cell maturation. At day 10, BMDCs were collected, washed with PBS and then incubated with anti-mouse CD16/CD32 to block FcRs and Zombie Aqua fixable viability dye to determine live/dead cells for 20 min. Cells were washed with PBS and stained with antibody cocktail (CD11c, […] CD80, and CD86) (Table 1) for 35 min at 4° C. BMDC maturation was determined by characterizing the cell surface marker expression using FACSDiva on a LSRII flow cytometer (BD Biosciences). Over 20,000 events were recorded for each sample and data were analyzed with FlowJo software. Different concentrations of P-D2-PEG5-PS-aVD (aVD concentration=0, 10^−9, and 10^−8 M) were also investigated on BMDC maturation using the same procedure described above. […] IL12p70 secretion in supernatant of the cell culture in the last 48 h were determined by enzyme-linked immunosorbent assay (ELISA) following the manufacturer's instructions (Fisher Thermo Scientific).

atherosclerotic lesions = experiment: Atherosclerotic lesion quantification and immunohistochemistry after 8 weeks treatment; assay type: in vivo, ApoE−/− mice; conditions: total aVD dose 800 ng over 8 weeks
Description: Treatment—Male ApoE^−/− mice at 8-weeks of age were fed a high-fat diet (HFD, Harlan Teklad TD.88137, 42% kcal from fat) for 4 weeks. Treatments were performed from week 12 and 100 μl of different treatments: 1, PBS (control); 2, free aVD (1 μg/ml); 3, PS-aVD; 4, P-D2-PEG5-PS-aVD; 5, P210/P-D2-PEG5-PS-aVD (2, 3, 4, 5 groups with the same aVD concentration of 1 μg/ml) were subsequently i.v. administrated every week for 8 weeks. During those weeks, mice were maintained on a high-fat diet, and the activities and body weight was monitored. In vivo experiments were performed with group sizes of N=5-6 mice per group and then independently repeated for a total of N=10-12 mice per group.
Atherosclerotic lesion quantification and immunohistochemistry—For atherosclerotic lesion analysis, mice were anesthetized and aortas were carefully harvested after perfusion with PBS under a microscope. The heart with ascending aorta was fixed with 4% paraformaldehyde (PFA)/5% sucrose in PBS solution 12 h at 4° C. […] For quantitative analysis of atherosclerotic lesions, 5-7 separate cross-sections from each mouse were stained with Oil Red 0 (ORO) (Sigma) for 1 h at 37° C. and 4′,6-diamidino-2-phenylindole (DAPI) for 5 min. […] An in-house software written in Python was developed for automated and quantitative image analysis (FIG. 16) […]

atherosclerotic plaque = conditions: orally to mice, total dose 4800 ng over 12 weeks; cited from earlier work
[1] = Celastrol quantification by HPLC: solubility, encapsulation efficiency, loading capacity, release; assay type: physicochemical
Description: Celastrol quantification—Celastrol solubility, encapsulation efficiency, and loading capacity were all assessed using high performance liquid chromatography (HPLC) using a Thermo Scientific C18 reverse phase column, with dimethylformamide (DMF) as the mobile phase at 0.5 mL/min. Area under the curve quantification of celastrol absorbance at 280 nm was performed using Thermo Fisher Chromeleon 7 software. A celastrol standard curve was constructed, with good linearity between celastrol concentrations of 2 mg/mL to 12.5 μg/mL, with 6.25 μg/mL being too close to the limit of detection for inclusion in the standard curve.
To determine the loading capacity of celastrol in micelles, defined here as the highest achievable mass of celastrol that can be stably loaded into 1 mg of micelles in 100 μL of 1×PBS, 1 mg of celastrol was added to 1 mg of PEG45-b-PPS20-Benzyl polymer in 500 uL THF in an HPLC vial. THF was removed by vacuum desiccation and micelles were formed via thin film rehydration with 100 μL of 1×PBS. […] Both samples (column filtered and unfiltered) were then lyophilized and redissolved in 200 μL DMF and celastrol content was quantified via HPLC.
To determine the encapsulation efficiency of celastrol in micelles, defined as the percentage of the originally added celastrol mass that is stably encapsulated in micelles after filtration to remove unencapsulated celastrol, micelles were formed as described above with variable amounts of celastrol, and were filtered using an LH-20 column. Filtered micelles were lyophilized and redissolved in 200 μL DMF and celastrol content was quantified via HPLC.
To determine the solubility of celastrol in aqueous buffer, 1 mg of celastrol was added to a glass vial along with 10 mL of 1×PBS. […] The lyophilized powder was resuspended in 200 μL DMF and celastrol was quantified via HPLC.
Celastrol release from micelles into 1×PBS with or without oxidative trigger was determined as follows. […] Absorbance at 424 nm, an absorbance peak for celastrol, were taken using a SpectraMax M3 plate reader using a 96-well plate.

NF-κB = NF-κB inhibition assay in RAW Blue cells (SEAP reporter); assay type: cell-based; conditions: read-out: half maximal effective concentration (EC50), NF-κB inhibition
Description: Inhibition assays—NF-κB inhibition by celastrol was assayed using RAW Blue cells (Invivogen), a stably transfected cell line derived from RAW 264.7 macrophage-like cells, which contain the gene for secreted alkaline phosphatase (SEAP) downstream of the NF-κB promoter. Cells were seeded into a 96 well plate at 50,000 cells per well. NF-κB signalling was induced using 100 ng/mL LPS, with celastrol-loaded micelles and free celastrol (0.1% THF in 1×PBS vehicle) added to the cells concurrent with LPS administration. All micelle formulations contained the same amount of polymer (15 mg/mL) but were loaded with variable amounts of celastrol, and free celastrol formulations were prepared to match the concentration of loaded celastrol within Cel-MC formulations. Free celastrol formulation were made by diluting celastrol stock solutions in THF with 1×PBS to reach the appropriate celastrol concentration and 0.1% THF in 1×PBS. Cells were incubated for 16 hours, as per assay instructions, before supernatant was collected for quantification of SEAP activity, as described by the manufacturer. Colorimetric quantification of SEAP activity was performed on an M3 plate reader (SpectraMax) at an absorbance wavelength of 630 nm.

RAW 264.7 cells [2] = experiment: Cytotoxicity assay (calcein-AM / ethidium homodimer); assay type: cell-based
Description: Cytotoxicity assays—RAW 264.7 cells were plated into a 96 well black wall plates at 50,000 cells per well. Cells were then treated with Cel-MC or free celastrol, formulated as described above for the inhibition assays. After 16 h of incubation with free celastrol or Cel-MC formulations, cells were washed and incubated with 4 μM calcein-AM and 2 μM ethidium homodimer (Thermo Fisher), as described by the manufacturer. Readings were performed on an M3 plate reader, at excitation/emission wavelengths of 488/530 nm and 488/635 nm for calcein and ethidium homodimer, respectively. Readings were normalized as described by the manufacturer, accounting for background fluorescence and setting 100% viability for untreated cells and 0% viability for cells incubated with 100% methanol for 15 minutes.

RAW 264.7 cells [3] = experiment: Apoptosis of RAW 264.7 cells with or without LPS; assay type: cell-based; conditions: 1 μg/mL celastrol, 4 h
Description: Celastrol has been investigated as a potential anti-cancer therapeutic due to its ability to induce cell death, and potentially binds to a number of proteins involved in apoptosis. As the manner of cell death can influence the downstream immune response, the onset of apoptosis upon treatment with celastrol was evaluated. Since NF-κB signalling in RAW 264.7 cells results in the secretion of TNF-α (FIG. 27C), an inducer of apoptosis in some contexts as well as cell survival and proliferation in others, the effect of the presence or absence of LPS during celastrol treatment on the induction of apoptosis or necrosis was assessed.

[4] = in vivo; cited from earlier work

SMILES	expression of MHC-II, CD80 and CD86 by stimulated BMDCs (BMDCs)	improvements in plaque area and macrophage content at the same dosage (atherosclerotic lesions)	decrease in plaque area (atherosclerotic plaque) [%]	reduction in macrophage accumulation (atherosclerotic plaque) [%]	theoretical solubility in nanocarriers, times higher than unencapsulated celastrol [1]	theoretical celastrol ‘solubility’ in 1×PBS when loaded in PEG-b-PPS nanocarriers ([1]; 200 mg/mL of polymer, loading capacity 22%) [µg/mL]	solubility at 1 h ([1]; aqueous buffer, thermodynamic from solid, detected in 1 mL of 1×PBS at 37 C, read-out: celastrol dissolved in aqueous buffer (solubility)) [µg/mL]	EC50 (NF-κB; 100 ng/mL LPS, 16 hours) [µg/mL]	EC50 (NF-κB; LPS) [µg/mL]	cell viability as the dosage of celastrol is decreased (RAW 264.7 cells [2])	cytotoxicity to RAW 264.7 cells (RAW 264.7 cells [2]; 0.8 mg/mL celastrol)	apoptotic cells (RAW 264.7 cells [3]; in the absence of LPS) [%]	apoptotic cells (RAW 264.7 cells [3]; in the presence of LPS) [%]	serum half-life (T1/2β) [4] [h]
C=C1/C(=C\C=C2/CCC[C@]3(C)[C@@H]([C@H](C)CCCC(C)(C)O)CC[C@@H]23)C[C@@H](O)C[C@@H]1O [aVD, 1, 25-Dihydroxyvitamin D3]	significantly decreased expression	no	39	29										
CC1=C(O)C(=O)C=C2C1=CC=C1[C@@]2(C)CC[C@@]2(C)[C@@H]3C[C@](C)(C(=O)O)CC[C@]3(C)CC[C@]12C [celastrol]					over 10,000 times	44000	3.5 (≈ 7.77 µM)	0.2 (≈ 0.444 µM)	0.2 (≈ 0.444 µM)	not	highly cytotoxic	16.5±1.8	37.5±4.4	8 to 10
